Literature values as cited in patent US9308243B2, “Cellular enhancements in biological systems through the use of li-pofullerene and peptide group combinations” (LivePet, LLC, priority 2014, dated 2016).

System: male flies
Details: tiny amount added to food supply

With NCCC(=O)N[C@@H](Cc1c[nH]cn1)C(=O)O [carnosine, L-Carnosine] as the compound, how does the “increase in the average life span” value read?
The value was 20%.
